ChEMBL document CHEMBL1157539, “Thousands of chemical starting points for antimalarial lead identification” (Nature, 2010)

Tested on: Plasmodium falciparum
Test: GSK_TCMDC: Inhibition of Plasmodium falciparum 3D7 in whole erythrocytes, using parasite LDH activity as an index of growth.
Format: functional, organism-based
Conditions: Plasmodium falciparum, 3D7

| SMILES | XC50 |
| --- | --- |
| COc1cccc(-c2csc(C(=O)NCC3CCN(Cc4ccc(C(C)(C)C)cc4)C3)c2)c1 (configuration not stated) | 1180 nM |
| CC(=O)c1ccc(-c2ccc(C(=O)NCCCCN3CCC(c4ccc5c(c4OCC(N)=O)CCCC5)CC3)cc2)s1 | 893 nM |
| CCN1CCN(c2cc(C)c3cc(NC(=O)C=Cc4cccc(OC)c4OC)ccc3n2)CC1 | 697 nM |
| Cc1ccc(O)c(C(=O)c2cnc3c(c2)c(-c2ccc(F)cc2)c(C#N)c(=O)n3C)c1 | 971 nM |
| CC(C)(C)OC(=O)/C=C(\C(=O)OCc1ccc([N+](=O)[O-])cc1)c1csc(NC(c2ccccc2)(c2ccccc2)c2ccccc2)n1 | 861 nM |
| CC(CN1CCN(C)CC1)C(=O)Nc1cccc(-c2ccc(-c3nc4ccccc4[nH]3)cc2)c1 (configuration not stated) | 943 nM |
| CCCC(CNCc1cccc(I)c1)CNc1cc(=O)c2ccccc2[nH]1 (configuration not stated) | 471 nM |
| C=CCn1ccc2c3c(N)nc(N)nc3ccc21 | 70 nM |
| Cc1cccc2nc(-c3ccc(-c4ccc(CN5CCN(c6ccc(C#N)cn6)CC5)cc4)s3)[nH]c12 | 1130 nM |
| CN(CCc1ccccn1)c1cccc2c1nc(-c1cccnc1)n2CCNCc1ccccc1 | 1060 nM |
| COc1cc(C(=O)N2CCN(C(C)C)CC2)ccc1CN(C)CCCCN1CCN(c2cccc(Cl)c2Cl)CC1 | 704 nM |
| Cc1cc(CN2CCCC(OC(c3ccc(F)cc3)c3ccc(F)cc3)C2)ccc1O (configuration not stated) | 883 nM |
| CN(C)CCN(Cc1ccccc1)c1ccc([N+](=O)[O-])cc1C(F)(F)F | 776 nM |
| O=C(NCCN1CCCCC1)c1ccc(CNC(=O)c2ccc(O)c(-c3cccc(C(F)(F)F)c3)c2)cc1 | 886 nM |
| CS(=O)(=O)N1CC2(CCN(CCC(NC(=O)Nc3ccccc3)c3ccc(Cl)c(Cl)c3)CC2)c2ccccc21 (configuration not stated) | 823 nM |
| COc1ccc(CCN(C)CCCN2CCC(NC(=O)c3cccc4c(=O)c5ccccc5sc34)CC2)cc1OC | 786 nM |
| Cc1ccc(NC(=O)Cc2noc(CC3CCCN3C(=O)N[C@@H](C)c3ccccc3)n2)cc1 (some centres not stated) | 369 nM |
| COc1ccccc1C1CCN(C2CCC(NC(=O)/C=C/c3cc(C(F)(F)F)ccc3F)CC2)CC1 (configuration not stated) | 868 nM |
| COc1cc(NC(=O)/C=C/c2ccccc2OC(F)(F)F)cc(OCCN2CCN(CCN3CCOCC3)CC2)c1 | 157 nM |
| COc1ccc(Cn2c(Nc3cccc(C(F)(F)F)c3)nc3cc(C(=O)NC(C)C)cnc32)cc1Cl | 973 nM |
| Cc1cc(NC(=O)CCN2CCN(c3cccc(Cl)c3Cl)CC2)ccc1N1CCN(C(C)C)CC1 | 847 nM |
| Cc1ccc(C(=O)Nc2cccc(-c3ccc(N4CCN(C)CC4)nn3)c2)cc1[N+](=O)[O-] | 334 nM |
| CCc1nonc1NC(=O)c1oc2c(C)c(C)ccc2c1C | 879 nM |
| CCOc1cc(C2C(C(=O)OC(C)C)=C(C)NC3=C2C(=O)CC(c2ccc(Cl)cc2)C3)ccc1OC(C)=O (configuration not stated) | 932 nM |
| COC(=O)c1ccc(CC(C)NCC(O)c2ccccc2Cl)cc1 (configuration not stated) | 1010 nM |

| SMILES | XC50 |
| --- | --- |
| O=C(NCC1CCN(Cc2ccc(F)cc2)C1)c1cc(-c2cccc(C(F)(F)F)c2)cs1 (configuration not stated) | 960 nM |
| Cc1ccc(C)c(NC(=O)Nc2ccc(C)c(-c3ccc(C(=O)Nc4ccncc4)cc3)c2)c1 | 618 nM |
| O=C(c1ccco1)c1cn(CCOc2ccccc2)c2ccccc12 | 748 nM |
| O=C1CCCN1CCCNCc1ccc(-c2ccc(-c3nc4cc(F)ccc4[nH]3)cc2)cc1 | 603 nM |
| CC(CN1CCN(C)CC1)C(=O)Nc1cccc(-c2cccc(-c3nc4cc(F)ccc4[nH]3)c2)c1 (configuration not stated) | 274 nM |
| C=CCOC(=O)N1CCC(CNCc2ccc(-c3cccc(-c4nc5cccc(C)c5[nH]4)c3)cc2)C1 (configuration not stated) | 118 nM |
| COc1ccc2ccc(OC)c(CNCCCCCCNCc3c(OC)ccc4ccc(OC)cc34)c2c1 | 699 nM |
| COc1cccc(-c2ccc3ccnc(N)c3c2)c1 | 408 nM |
| CCCOc1ccc(N2C(N)=NC(N)=NC2(C)C)cc1 | 487 nM |
| Cc1[nH]c2ccccc2c1C1=CCN(CC2CC2C(=O)c2ccccc2)CC1 (configuration not stated) | 349 nM |
| CCC[C@@H]1CCN[C@H]([C@H](O)c2ccnc3ccc(OC)cc23)C1 | 726 nM |
| Cc1cccc2nc(-c3ccc(-c4cccc(CNCCc5ccncc5)c4)s3)[nH]c12 | 138 nM |
| CCOC(=O)c1c(C)noc1Nc1cccc(C)c1C | 416 nM |
| COc1ccc2nccc([C@H](O)CN3CCC(NCc4cc(C)c5c(c4)OCCO5)CC3)c2n1 | 902 nM |
| O=C(Nc1nc2cc(S(=O)(=O)NCc3ccc(Cl)c(Cl)c3)ccc2n1CCCN1CCCC1)c1ccc(Cl)cc1 | 939 nM |
| COc1cc(C(=O)NC2CCN(Cc3ccccc3)CC2)ccc1-c1cc2cc(Cl)c(Cl)cc2[nH]1 | 227 nM |
| CCc1cn2c3c(cc(C(=O)N[C@@H](Cc4cccc(Cl)c4)[C@H](O)CNC4CC4)cc13)N(C)S(=O)(=O)CC2 | 145 nM |
| Cc1cccc2c3c([nH]c12)C1(CCN(CCc2ccccc2)CC1)NC(C(=O)NCc1ccccc1)C3 (configuration not stated) | 1000 nM |
| C=CCNS(=O)(=O)c1ccc(NC(=O)C(C)Oc2ccc([N+](=O)[O-])cc2)cc1 (configuration not stated) | 1220 nM |
| O=C(NC1CCCCC1)N(Cc1cccc(-c2ccc(CNCc3ccc4c(c3)OCO4)cc2)c1)C1CCN(Cc2ccccc2)CC1 | 788 nM |
| CCCCCCCN1CC[C@@H](CCCc2ccnc3ccc(OCCCCN/C(N)=N/O)cc23)[C@@H](CC)C1 | 952 nM |
| CC(C)N1CCN(c2ccc(OCCCN3CCN(c4cccc(Cl)c4Cl)CC3)c(C(F)(F)F)c2)CC1 | 810 nM |
| O=C(/C=C/c1cc([N+](=O)[O-])ccc1Cl)NC1CCC(CN2CCC(c3c[nH]c4ccccc34)CC2)CC1 (configuration not stated) | 740 nM |
| COc1ccc(Cc2c(C)nc3nc(N)nc(N)c3c2C)cc1 | 284 nM |
| Cc1cccc2nc(-c3ccc(-c4ccc(CNCCc5ccncc5)cc4)cc3)[nH]c12 | 208 nM |

| SMILES | XC50 |
| --- | --- |
| CCC[C@@H]([C@@H](CC1CCCCC1)C(=O)N[C@H](C(=O)Nc1nccs1)C(C)(C)SCCNC(=O)OCc1ccccn1)N(O)C=O | 162 nM |
| COc1ccc2ncc(F)c(CCN3CC(O)C(CNCc4ccc5ccccc5c4)C3)c2n1 (configuration not stated) | 501 nM |
| CN(C)c1ccc(NC2=NC(N)=NC(C)(C)N2)cc1 | 223 nM |
| O=C(Nc1cccc(-c2cccc(-c3nc4cc(C(F)(F)F)ccc4[nH]3)c2)c1)c1csnn1 | 238 nM |
| Cc1ccc(C(c2nnnn2C2CCCC2)N(Cc2ccco2)Cc2ccccc2Cl)cc1 (configuration not stated) | 959 nM |
| Cc1cccc2nc(-c3ccc(-c4cccc(CN5CCC(N)C5)c4)s3)[nH]c12 (configuration not stated) | 773 nM |
| CC(C)COc1ccc(Cl)cc1Cc1nc(-c2nc3ccc(CN4CCCC4)cc3[nH]2)co1 | 727 nM |
| COc1ccc(Cc2cnc(N)nc2N)cc1OCCCOc1ccccc1 | 911 nM |
| C=CCc1ccccc1OCC(O)CN(C1CCCCC1)C1CCCCC1 (configuration not stated) | 814 nM |
| CN=C(S)NN=C(C)c1ccccn1 | 272 nM |
| CN1CCC(OC(=O)c2cc3cc(-c4ccccc4)ccc3n2S(=O)(=O)c2ccccc2)CC1 | 1090 nM |
| CC(C)CCN1CCC(Oc2ccc(NC(=O)c3ccc(F)cc3)cc2Cl)CC1 | 725 nM |
| COC(=O)c1ccc(CC(C)NCC(O)c2cccc(Cl)c2Cl)cc1 (configuration not stated) | 548 nM |
| CCc1sc(-c2cc(Cl)ccc2OC)nc1C(=O)NCCN1CCCCC1 | 938 nM |
| Cc1cc(N[C@@H](CC(C)C)C(=O)NCCOc2ccccc2)nc(NCCc2ccc(F)cc2)n1 | 1290 nM |
| CN1CCC(NCc2cccc(-c3ccc(S(=O)(=O)NCc4ccccc4)cc3)c2)CC1 | 687 nM |
| Cc1ccc(F)c(OCC2CCN(c3ccc(C(=O)NC4CC4)cn3)CC2)c1 | 733 nM |
| CSc1cccc(Nc2nc3ccc(S(=O)(=O)NC(C)C(C)C)cc3n2[C@H](C)C(C)(C)C)c1 (some centres not stated) | 446 nM |
| CCC(=O)c1c(C)n(-c2ncnc3c2nc(C)n3-c2ccc(C)cc2C)c2ccccc12 | 645 nM |
| N#Cc1cc(C(=O)c2cc(Br)ccc2O)cn(C2CCCCC2)c1=O | 910 nM |
| NC1=NC2(CCCCC2)N(OCCCCCCN2C(=O)c3ccccc3C2=O)C(N)=N1 | 871 nM |
| Cc1cccc2nc(-c3ccc(-c4ccc(CN5CCN(CCO)CC5)cc4)s3)[nH]c12 | 712 nM |
| O=C(Nc1ccc(-c2ccccc2)cc1)Nc1ccc2c(c1)CCNCC2 | 348 nM |
| CCCCCCCn1c2c(c(=N)c3c1CCC3)CCCC2 | 102 nM |
| Cc1cccc2nc(-c3cccc(-c4cccc(CNCCc5cccn5C)c4)c3)[nH]c12 | 733 nM |

| SMILES | XC50 |
| --- | --- |
| FC(F)(F)Oc1ccc(-c2cnc3ccc(NCc4ccncc4)nn23)cc1 | 866 nM |
| COc1ccc2nccc([C@@H](O)CN3CCC(NCc4cc5ccccc5nc4O)CC3)c2c1 | 182 nM |
| CC1(CCc2ccccc2)N=C(N)N=C(N)C1c1ccc(Cl)c(Cl)c1 (configuration not stated) | 316 nM |
| O=[N+]([O-])c1ccccc1C=NN=c1c2c([nH]c3ccccc13)CCCC2 | 311 nM |
| NC(=O)c1cccc(CN2Cc3ccccc3OC3(CCN(Cc4c[nH]c5cnccc45)CC3)C2)c1 | 1060 nM |
| CO[C@@H]1C[C@@H](C(=O)Nc2ccccc2)N(c2ccc(C#N)c3ccccc23)C1 | 907 nM |
| Cc1cnc(Nc2cccnc2)nc1Nc1ccccc1C(=O)NC(C)C | 1200 nM |
| COc1cccc(-c2ccc(C(=O)NC3CCN(Cc4ccc(C(C)(C)C)cc4)CC3)s2)c1 | 1600 nM |
| Cc1ccc(-c2nc(NC(=O)Nc3ccc(C(F)(F)F)cc3)sc2C)cc1Cl | 659 nM |
| O=S(=O)(NCCN1CCCC1)c1cccc(-c2ccc(CNC3Cc4ccccc4C3)cc2)c1 | 660 nM |
| O=C(Nc1ccc(-c2csc(-c3nc4ccccc4[nH]3)c2)cc1)Nc1ccc(F)c(F)c1F | 330 nM |
| O=C(Nc1ccc(F)c([N+](=O)[O-])c1)Nc1cc(C(F)(F)F)ccc1Cl | 861 nM |
| c1ccc(-c2nc3ccccc3[nH]2)c(Nc2ccnc3cc(-c4nccs4)ccc23)c1 | 740 nM |
| CCCc1c(C(=O)NC2CCC(CN3CCC(c4c[nH]c5ccccc45)CC3)CC2)cnn1-c1ccccc1 (configuration not stated) | 1790 nM |
| Cc1ccc(NC(=N)Nc2ncccc2OCc2c(F)cccc2Cl)cc1 | 1190 nM |
| N#Cc1cccc(Nc2nccc(NCC(O)c3ccccc3C(F)(F)F)n2)c1 (configuration not stated) | 827 nM |
| O=C(NC1CCN(CCC(NC(=O)c2ccccc2)c2ccc(Cl)c(Cl)c2)CC1)c1ccc(Cl)cc1 (configuration not stated) | 1070 nM |
| Oc1ccc(Cl)c2c1C(c1ccccc1)=NCC2 | 540 nM |
| CCCN1CCN(CC(O)CNC(=O)Nc2ccc(Br)cc2)CC1 (configuration not stated) | 63 nM |
| CN1CC=C(c2c[nH]c3ccc(Br)cc23)CC1 | 1190 nM |
| N=C(N)c1ccc2[nH]c(SCc3ccccc3)nc2c1 | 687 nM |
| CCOc1ccc(C2CCN(CCN3CCC(NC(=O)c4ccc(-c5ccc(C(F)(F)F)cc5)cc4)CC3)CC2)c(OCC2CC2)c1 | 826 nM |
